Measurements: patent US5972955A, “Water soluble C-ring analogues of 20(S)-camptothecin” (Dr. Reddy's Research Foundation, priority 1996, dated 1999)
“Also recorded” adds a separate entry of the source.

Tests used:
[1] = test system: NCI's 60 human tumor cell line assay; experiment: NCI 60 human tumor cell line assay, mean growth inhibition (Table 1); type: cell-based; conditions: read-out: IC50 = the mean value of the minimum drug concentration of the agent required to produce 50% cell growth inhibition (GI50); mean over NCI's 60 human tumor cell lines; 48 h; Sulforhodamine B
Procedure: (§1) Inoculates were allowed a preincubation period of 24 h at 37° C. for stabilization.
^a IC50 = the mean value of the minimum drug concentration (μm) of
NCI's 60 human tumor cell line assay.

topoisomerase I = conditions: cited from earlier work
Human Serum Albumin = conditions: in the presence of HSA at 37° C.; cited from earlier work
MOLT-4 = experiment: NCI in vitro growth inhibition, leukemia MOLT-4; type: cell-based; conditions: Homo sapiens, read-out: 50% Growth Inhibition (GI 50); MOLT-4, leukemia; 48 h
Procedure: as §1

HL 60 = experiment: NCI in vitro growth inhibition, leukemia HL 60; type: cell-based; conditions: Homo sapiens, read-out: 50% Growth Inhibition (GI 50); HL 60, leukemia; 48 h
Procedure: as §1

SR = experiment: NCI in vitro growth inhibition, leukemia SR; type: cell-based; conditions: Homo sapiens, read-out: 50% Growth Inhibition (GI 50), 48 h
Procedure: as §1

H 460 = experiment: NCI in vitro growth inhibition, NSLC H 460; type: cell-based; conditions: Homo sapiens, NCI-H460, read-out: 50% Growth Inhibition (GI 50); H 460, NSLC; 48 h
Procedure: as §1

HOP 62 = experiment: NCI in vitro growth inhibition, NSLC HOP 62; type: cell-based; conditions: Homo sapiens, read-out: 50% Growth Inhibition (GI 50); HOP 62, NSLC; 48 h
Procedure: as §1

H 522 = experiment: NCI in vitro growth inhibition, NSLC H 522; type: cell-based; conditions: Homo sapiens, NCI-H522, read-out: 50% Growth Inhibition (GI 50); H 522, NSLC; 48 h
Procedure: as §1

H 23 = experiment: NCI in vitro growth inhibition, NSLC H 23; type: cell-based; conditions: Homo sapiens, NCI-H23, read-out: 50% Growth Inhibition (GI 50); H 23, NSLC; 48 h
Procedure: as §1

SF-268 = experiment: NCI in vitro growth inhibition, CNS SF-268; type: cell-based; conditions: Homo sapiens, SF-268, 48 h, read-out: 50% Growth Inhibition (GI 50)
Procedure: as §1

SF-539 = experiment: NCI in vitro growth inhibition, CNS SF-539; type: cell-based; conditions: Homo sapiens, read-out: 50% Growth Inhibition (GI 50); SF-539, CNS; 48 h
Procedure: as §1

SF 295 = experiment: NCI in vitro growth inhibition, CNS SF 295; type: cell-based; conditions: Homo sapiens, read-out: 50% Growth Inhibition (GI 50); SF 295, CNS; 48 h
Procedure: as §1

786-O = experiment: NCI in vitro growth inhibition, renal 786-O; type: cell-based; conditions: Homo sapiens, 786-0, read-out: 50% Growth Inhibition (GI 50), 48 h
Procedure: as §1

ACHN = experiment: NCI in vitro growth inhibition, renal ACHN; type: cell-based; conditions: Homo sapiens, read-out: 50% Growth Inhibition (GI 50), 48 h
Procedure: as §1

CAKI-1 = experiment: NCI in vitro growth inhibition, renal CAKI-1; type: cell-based; conditions: Homo sapiens, read-out: 50% Growth Inhibition (GI 50); CAKI-1, renal; 48 h
Procedure: as §1

LOX IMVI = experiment: NCI in vitro growth inhibition, melanoma LOX IMVI; type: cell-based; conditions: Homo sapiens, read-out: 50% Growth Inhibition (GI 50), 48 h
Procedure: as §1

UACC 62 = experiment: NCI in vitro growth inhibition, melanoma UACC 62; type: cell-based; conditions: Homo sapiens, read-out: 50% Growth Inhibition (GI 50); UACC 62, melanoma; 48 h
Procedure: as §1

M-14 = experiment: NCI in vitro growth inhibition, melanoma M-14; type: cell-based; conditions: Homo sapiens, M14, read-out: 50% Growth Inhibition (GI 50); M-14, melanoma; 48 h
Procedure: as §1

SK MEL-5 = experiment: NCI in vitro growth inhibition, melanoma SK MEL-5; type: cell-based; conditions: Homo sapiens, read-out: 50% Growth Inhibition (GI 50); SK MEL-5, melanoma; 48 h
Procedure: as §1

MCF-7 = experiment: NCI in vitro growth inhibition, breast MCF-7; type: cell-based; conditions: Homo sapiens, MCF7, read-out: 50% Growth Inhibition (GI 50); MCF-7, breast; 48 h
Procedure: as §1

MCF7/ADR = experiment: NCI in vitro growth inhibition, breast MCF7/ADR; type: cell-based; conditions: Homo sapiens, NCI/ADR-RES, read-out: 50% Growth Inhibition (GI 50), 48 h
Procedure: as §1

T 47D = experiment: NCI in vitro growth inhibition, breast T 47D; type: cell-based; conditions: Homo sapiens, T47D, read-out: 50% Growth Inhibition (GI 50), 48 h
Procedure: as §1

[2] = cited from earlier work
[3] = in vivo; cited from earlier work
[4] = compared with 20(RS)-camptothecin; cited from earlier work
CCRF-CEM = experiment: NCI in vitro growth inhibition, leukemia CCRF-CEM; type: cell-based; conditions: Homo sapiens, read-out: 50% Growth Inhibition (GI 50), 48 h
Procedure: as §1

CC[C@@]1(O)C(=O)OCc2c1cc1n(c2=O)C(NCCN(C)C)c2cc3c(OC)cccc3nc2-1 (stereo partly shown) [Example 7, 5-(N,N-Dimethylethylenediamino)-9-methoxycamptothecin]
IC50 [1]: 9.54 µM

CCN(CC)CCNC1c2cc3c(OC)cccc3nc2-c2cc3c(c(=O)n21)COC(=O)[C@]3(O)CC (stereo partly shown) [9-Methoxy-5-(N,N-diethylethylenediamino) CPT]
IC50 [1]: 19.1 µM

CC[C@@]1(O)C(=O)OCc2c1cc1n(c2=O)C(NCCN2CCOCC2)c2cc3c(OC)cccc3nc2-1 (stereo partly shown) [9-Methoxy-5-morphilinoethylamino CPT]
IC50 [1]: > 30 µM

C=C1C(=O)OCc2c1cc1n(c2=O)Cc2c-1nc1ccc(O)cc1c2CC [formula 8]
inhibition of topoisomerase I (in words) (topoisomerase I): potent camptothecin like inhibition of topoisomerase I activity

CCc1c2c(nc3ccc(OC(=O)N4CCC(N5CCCCC5)CC4)cc13)-c1cc3c(c(=O)n1C2)COC(=O)[C@]3(O)CC [CPT-11]
percentage (%) of lactone form at equilibrium (in words) (Human Serum Albumin): a higher percentage (%) of lactone form at equilibrium than 20(S) camptothecin of the formula 2 and 9-aminocamptothecin of the formula 5

CC[C@@]1(O)C(=O)OCc2c1cc1n(c2=O)C(NCCN2CCCCC2)c2cc3ccccc3nc2-1 (stereo partly shown) [Example 16, 5-(Piperidinoethylamino)camptothecin]
IC50 [1]: 23.4 µM

CC[C@@]1(O)C(=O)OCc2c1cc1n(c2=O)C(NCCN2CCCC2)c2cc3ccccc3nc2-1 (stereo partly shown) [Example 15, 5-(Pyrrolidinoethylamino)camptothecin]
IC50 [1]: > 30 µM

CC[C@@]1(O)C(=O)OCc2c1cc1n(c2=O)C(NO)c2cc3cc(O)ccc3nc2-1 (stereo partly shown) [Example 11, 10-Hydroxy-5-hydroxylaminocamptothecin]
IC50 [1]: 10 µM | GI50 (MOLT-4): 10 nM | GI50 (HL 60): 1860 nM | GI50 (SR): 100 nM | GI50 (H 460): 1540 nM | GI50 (HOP 62): 7410 nM | GI50 (H 522): 5370 nM | GI50 (H 23): 4160 nM | GI50 (SF-268): 2450 nM | GI50 (SF-539): 3160 nM | GI50 (SF 295): 4890 nM | GI50 (786-O): 2690 nM | GI50 (ACHN): 3160 nM | GI50 (CAKI-1): 4.26 µM | GI50 (LOX IMVI): 2690 nM | GI50 (UACC 62): 4160 nM | GI50 (M-14): 4260 nM | GI50 (SK MEL-5): 15 µM | GI50 (MCF-7): 4070 nM | GI50 (MCF7/ADR): > 30000 nM | GI50 (T 47D): 1280 nM

CC[C@@]1(O)C(=O)OCc2c1cc1n(c2=O)C(NCCO)c2cc3ccccc3nc2-1 (stereo partly shown) [Example 2, 5-(2'-hydroxyethylamino)camptothecin]
IC50 [1]: > 30 µM

CC[C@@]1(O)C(=O)OCc2c1cc1n(c2=O)Cc2cc3ccccc3nc2-1 [20(S)-Camptothecin]
water solubility (in words) [2]: low water solubility | inhibition of topoisomerase I (in words) (topoisomerase I): inhibitor of topoisomerise I | side effects / toxicity (in words) [3]: unacceptable side effects on humans; also recorded: high toxicity problems

CCc1c2c(nc3ccc(OC)cc13)-c1cc3c(c(=O)n1C2)COC(=O)[C@]3(N)CC [formula 6]
in vivo antitumor activity (in words) [4]: increased in vivo antitumor activity than 20(RS)-camptothecin

CCN(CC)CCCNC1c2cc3c(OC)cccc3nc2-c2cc3c(c(=O)n21)COC(=O)C3(O)CC (stereo not shown) [9-Methoxy-5-(N,N-diethylpropylenediamino) CPT]
IC50 [1]: 8.31 µM

CC[C@@]1(O)C(=O)OCc2c1cc1n(c2=O)C(NCCCCO)c2cc3c(OC)cccc3nc2-1 (stereo partly shown) [Example 10, 5-(4'-hydroxybutylamino)-9-methoxycamptothecin]
IC50 [1]: 13.1 µM

CC[C@@]1(O)C(=O)OCc2c1cc1n(c2=O)C(NO)c2cc3ccccc3nc2-1 (stereo partly shown) [Example 1, 5-Hydroxylaminocamptothecin]
IC50 [1]: 2.39 µM | GI50 (MOLT-4): 180 nM | GI50 (HL 60): 380 nM | GI50 (SR): 530 nM | GI50 (H 460): 480 nM | GI50 (HOP 62): 380 nM | GI50 (H 522): 200 nM | GI50 (H 23): 1620 nM | GI50 (SF-539): 1200 nM | GI50 (SF 295): 250 nM | GI50 (786-O): 560 nM | GI50 (ACHN): 400 nM | GI50 (LOX IMVI): 3380 nM | GI50 (UACC 62): 370 nM | GI50 (M-14): 370 nM | GI50 (SK MEL-5): 3.38 µM | GI50 (MCF-7): 340 nM | GI50 (MCF7/ADR): 2180 nM | GI50 (T 47D): 200 nM

CC[C@@]1(O)C(=O)OCc2c1cc1n(c2=O)C(NCCN2CCCC2)c2cc3c(OC)cccc3nc2-1 (stereo partly shown) [9-Methoxy-5-pyrrolidinoethylamino CPT]
IC50 [1]: 31.6 µM

CC[C@@]1(O)C(=O)OCc2c1cc1n(c2=O)C(NCc2ccccc2)c2cc3ccccc3nc2-1 (stereo partly shown) [Example 5, 5-Benzylaminocamptothecin]
IC50 [1]: > 30 µM

CC[C@@]1(O)C(=O)OCc2c1cc1n(c2=O)C(NC)c2cc3ccccc3nc2-1 (stereo partly shown) [Example 12, 5-Methylaminocamptothecin]
IC50 [1]: 4.67 µM | GI50 (CCRF-CEM): 230 nM | GI50 (MOLT-4): 150 nM | GI50 (HL 60): 220 nM | GI50 (SR): 30 nM | GI50 (HOP 62): 1730 nM | GI50 (H 522): 2880 nM | GI50 (H 23): 2570 nM | GI50 (SF-268): 850 nM | GI50 (SF-539): 1810 nM | GI50 (SF 295): 1120 nM | GI50 (786-O): 4070 nM | GI50 (ACHN): 970 nM | GI50 (CAKI-1): 2.29 µM | GI50 (LOX IMVI): 2340 nM | GI50 (M-14): 2180 nM | GI50 (SK MEL-5): 2.51 µM | GI50 (MCF-7): 1250 nM | GI50 (MCF7/ADR): 1940 nM | GI50 (T 47D): 4670 nM

CC[C@@]1(O)C(=O)OCc2c1cc1n(c2=O)C(NCC(O)CO)c2cc3c(OC)cccc3nc2-1 (stereo partly shown) [Example 9]
IC50 [1]: 6.6 µM

CC[C@@]1(O)C(=O)OCc2c1cc1n(c2=O)C(NCCN(C)C)c2cc3ccccc3nc2-1 (stereo partly shown) [Example 4, 5-(N,N-Dimethylethylenediamino)camptothecin]
IC50 [1]: > 30 µM

CC[C@@]1(O)C(=O)OCc2c1cc1n(c2=O)Cc2cc3c(CN(C)C)c(O)ccc3nc2-1 [Topotecan]
percentage (%) of lactone form at equilibrium (in words) (Human Serum Albumin): a higher percentage (%) of lactone form at equilibrium than 20(S) camptothecin of the formula 2 and 9-aminocamptothecin of the formula 5

CC[C@@]1(O)C(=O)OCc2c1cc1n(c2=O)C(NCCN2CCCCC2)c2cc3c(OC)cccc3nc2-1 (stereo partly shown) [9-Methoxy-5-piperidinoethylamino CPT]
IC50 [1]: 28.1 µM

CCc1c2c(nc3ccc(O)cc13)-c1cc3c(c(=O)n1C2)COC(=O)[C@]3(O)CC [SN-38, 7-ethyl-10-hydroxycamptothecin]
percentage (%) of lactone form at equilibrium (in words) (Human Serum Albumin): a higher percentage (%) of lactone form at equilibrium than 20(S) camptothecin of the formula 2 and 9-aminocamptothecin of the formula 5

CC[C@@]1(O)C(=O)OCc2c1cc1n(c2=O)C(NCCCl)c2cc3ccccc3nc2-1 (stereo partly shown) [Example 6, 5-(2'-chloroethylamino)camptothecin]
IC50 [1]: 19 µM
